Test results: US20250296938A1, “Compounds that Interact with the Ras Superfamily for the Treatment of Cancers, Inflammatory Diseases, Rasopathies, and Fibrotic Disease” (SHY Therapeutics, LLC, priority 2018, published 2025)
Where two headings read alike, the source gives them in different places. Each block holds one molecule with its values, some of them ahead of it.

How the values were obtained:
MAPK phosphorylation = assay: MAPK cell-based phosphorylation assay (ELISA or Western), PANC-1; settings: Homo sapiens
Method: Cell lines: Tumor-derived pancreatic cancer cell line PANC-1 was purchased from ATCC and were and grown in DMEM-High Glucose supplemented with penicillin (100 U/mL), streptomycin (100 μg/mL), and 10% heat-inactivated FBS at 37° C. in a humidified incubator with 5% CO2.
Method: Cells were plated at 7500 cells/well density in a 96-well plate, allowed 3 hours to adhere to the plate, then starved in DMEM plus 0.5% FBS overnight. The small molecules to be tested were added to the cells in the final concentration of 10 μM in the presence of 0.3% DMSO for 6 hours incubation at 37° C. For IC50 value determination, serial dilutions of compounds were added to cells under the same conditions. Next, cells were stimulated with 1.5 ng/mL EGF for 15 minutes followed by cell fixation with 4% formaldehyde in PBS at room temperature for 20 minutes. Cell-direct ELISA determined phosphorylation level of MAPK.
Cell-direct ELISA: For each well, cells were permeabilized with 0.1% PBS-Triton X-100, quenched with 0.06% H2O2 in 0.1% PBS-Triton X-100, and probed with anti-phospho-MAPK antibodies (R&D Systems) followed by HRP-conjugated secondary antibody (Jackson Immunoresearch, West Grove, PA). Next, a 50 μM solution of the fluorescent substrate AmpliFlu Red (Sigma) was added and incubated at RT for 20 minutes. At the end of the incubation time, phosphorylation level of MAPK was determined by measuring fluorescence at 595 nm using SpectraMax M3 plate reader (Molecular Devices).
(§1) Cell lines: Human NSCLC cells NCI-H1975 and NCI-H1299, and tumor-derived pancreatic cancer cell lines Panc-1, MIA-PaCa-2, and BxPC3, were all purchased from American Type Culture Collection and grown in complete RPMI medium (BxPC3, NCI-H1975 and NCI-H1299) or DMEM-High Glucose (Panc1 and MIA-PaCa-2), supplemented with penicillin (100 U/mL), streptomycin (100 μg/mL), and 10% heat-inactivated FBS at 37° C. in a humidified incubator with 5% CO2.
(§2) Method: Cells were plated at 350000 cells/well density in a 12-well plate, allowed 3 hours to adhere to the plate, then starved in the appropriate medium in the presence of 0.5% FBS overnight. The small molecules to be tested were added to the cells in the final concentration of 10 μM in the presence of 0.3% DMSO for 6 hours incubation at 37° C. For IC50 value determination, serial dilutions of compounds were added to cells under the same conditions. Next, cells were stimulated with 1.5 ng/ml EGF for 15 minutes then cells were lysed with lysis buffer containing 1% Triton X-100, EDTA, and Halt™ Protease & Phosphatase Inhibitor Cocktail (Thermo Scientific). Protein concentration was assessed by BCA protein assay (Thermo Scientific). Phosphorylation level of MAPK was determined by western blot.
(§3) Western blot protocol: Equal amounts of protein (15-50 μg) were separated by SDS-PAGE and transferred to nitrocellulose membranes (Invitrogen by Thermo Fisher Scientific). The membrane was stained with Ponceau S Stain (Boston BioProducts) to verify uniform protein loading. Membranes were blocked with 10% milk and phosphorylation levels of MAPK were assessed by incubating overnight at 4° C. with anti-phospho-p44/42 (Thr202/Tyr204) antibody (Cell Signaling) followed by HRP-conjugated secondary antibody (Jackson Immunoresearch, West Grove, PA). Bands were incubated in Amersham ECL Prime Western Blotting Detection Reagent (GE Healthcare) and visualized using the ChemiDoc MP imaging system (Bio-Rad).

AKT phosphorylation = assay: Western AKT cell-based phosphorylation assay, PANC-1; settings: Homo sapiens
Method: Human tumor-derived pancreatic cancer cell line Panc-1 was purchased from American Type Culture Collection and grown in complete DMEM-High Glucose supplemented with penicillin (100 U/mL), streptomycin (100 μg/mL), and 10% heat-inactivated FBS at 37° C. in a humidified incubator with 5% CO2.
as §2, with “C.” for “C. For IC50 value determination, serial dilutions of compounds were added to cells under the same conditions.”, “Akt” for “MAPK”
as §3, with “Akt” for “MAPK”, “anti-phospho-Akt (Ser473)” for “anti-phospho-p44/42 (Thr202/Tyr204)”

[1] = tested on: MIA PaCa-2 pancreatic cancer cell line; assay: Cell proliferation assay (DAPI); assay type: cell-based; settings: Homo sapiens; for inhibition at 10 µM: read-out: % Inhibition of cell proliferation, MIA PaCa-2 % inh
Method: as §1, with “MIA-PACA2,” for “MIA-PaCa-2,”
Method: Cells were plated at 2000 to 5000 cells/well density in 96-wells plate and cultured ON. Small molecules to be tested were added to the cells in the final concentration of 10 µM in the presence of 0.3% DMSO and 10% FBS, and incubated for 2-4 days at 37° C. in a humidified incubator with 5% CO2. For IC50 value determination, serial dilutions of compounds were added to cells under the same conditions.
Assay: At the end of the incubation period, cell cultures were fixed with a 50-50 mixture (v/v) acetone-methanol for 10 minutes at −20° C., followed by rehydration in PBS for 10 minutes at room temperature. DNA total content was determined by staining cells with DAPI (1 ug/ml) in PBS for 10 minutes at room temperature, followed by 3 washes with PBS. After staining, DAPI fluorescence was recorded (358 nm excitation/461 nm emission) with the 96-well plate reader Molecular Devices Spectramax M3; degree of small molecule-dependent proliferation inhibition was calculated from raw data.

[2] = 6 hours, EGF stimulation, PANC-1

SMILES: COc1ccc(-c2c(-c3ccn(C)n3)sc3nc(-c4nccn4C)nc(N4CCC(OC)C4)c23)cc1 (stereo not shown) [drawing 413]
- inhibition at 10 µM (MAPK phosphorylation; [2]): 1 to 25%
- inhibition at 10 µM (AKT phosphorylation; [2]): 0%

SMILES: COC(=O)c1nc(-c2nccn2C)nc(O)c1O [drawing 468]
- inhibition at 10 µM (MAPK phosphorylation; [2]): 0%
- inhibition at 10 µM (AKT phosphorylation; [2]): 0%

SMILES: CO[C@H]1C[C@@H](Nc2nc(-c3nccn3C)nc3sc(-c4ccn(C)n4)c(-c4ccccc4)c23)C1 [drawing 505]
- inhibition at 10 µM (MAPK phosphorylation; PANC-1 (Table 4C)): 76 to 100%
- inhibition at 10 µM (AKT phosphorylation; PANC-1 (Table 4C)): 76 to 100%

SMILES: COc1c(O)nc(-c2ccccn2)nc1Oc1cccnc1 [drawing 447]
- inhibition at 10 µM (MAPK phosphorylation; [2]): 0%
- inhibition at 10 µM (AKT phosphorylation; [2]): 0%

SMILES: CC(C)CN(C)C(=O)c1nc(-c2ccccn2)nc(O)c1O [drawing 458]
- inhibition at 10 µM (MAPK phosphorylation; [2]): 0%
- inhibition at 10 µM (AKT phosphorylation; [2]): 0%

SMILES: Cn1ccnc1-c1nc(O)c(O)c(C(=O)N2CCCC2)n1 [drawing 464]
- inhibition at 10 µM (MAPK phosphorylation; [2]): 0%
- inhibition at 10 µM (AKT phosphorylation; [2]): 0%

SMILES: COc1c(F)cccc1-c1sc2nc(-c3nccn3C)nc(N[C@@H]3CC[C@H](OC)C3)c2c1-c1ccccc1 [drawing 487]
- inhibition at 10 µM (MAPK phosphorylation; PANC-1 (Table 4C)): 76 to 100%
- inhibition at 10 µM (AKT phosphorylation; PANC-1 (Table 4C)): 76 to 100%

SMILES: Cn1ccc(-c2sc3nc(-c4nccn4C)nc(N4CCC5(CCOC5)C4)c3c2-c2ccccc2)n1 (stereo not shown) [drawing 409]
- inhibition at 10 µM (MAPK phosphorylation; [2]): 0%
- inhibition at 10 µM (AKT phosphorylation; [2]): 0%

SMILES: COc1cccc(Cn2ccnc2-c2nc(O)c3scc(-c4ccccn4)c3n2)c1 [drawing 393]
- inhibition at 10 µM (MAPK phosphorylation; [2]): 51 to 75%
- inhibition at 10 µM (AKT phosphorylation; [2]): 0%

SMILES: Oc1nc(-c2ncc3ccccn23)nc2c(-c3ccccn3)csc12 [drawing 396]
- inhibition at 10 µM (MAPK phosphorylation; [2]): 0%
- inhibition at 10 µM (AKT phosphorylation; [2]): 0%

SMILES: COC1CCN(c2nc(-c3nccn3C)nc3sc(-c4ccn(C)n4)c(-c4ccccc4)c23)C1 (stereo not shown) [drawing 403]
- inhibition at 10 µM (MAPK phosphorylation; [2]): 1 to 25%
- inhibition at 10 µM (AKT phosphorylation; [2]): 0%

SMILES: COCCCNc1nc(-c2nccn2C)nc2sc(-c3ccn(C)n3)c(-c3ccc(OC)cc3)c12 [drawing 411]
- inhibition at 10 µM (MAPK phosphorylation; [2]): 0%
- inhibition at 10 µM (AKT phosphorylation; [2]): 0%

SMILES: Cn1ccc(-c2sc3nc(-c4nccn4C)nc(N[C@@H]4CC[C@H](O)C4)c3c2-c2ccccc2)n1 (racemic) [drawing 509]
- inhibition at 10 µM (MAPK phosphorylation; PANC-1 (Table 4C)): 26 to 50%
- inhibition at 10 µM (AKT phosphorylation; PANC-1 (Table 4C)): 0%

SMILES: CC(C)NC(=O)c1nc(-c2nccn2C)nc(O)c1O [drawing 462]
- inhibition at 10 µM (MAPK phosphorylation; [2]): 0%
- inhibition at 10 µM (AKT phosphorylation; [2]): 0%

SMILES: COC1CCN(c2nc(-c3nccn3C)nc3sc(-c4ccc(CO)cc4)c(-c4ccccc4)c23)C1 (stereo not shown) [drawing 436]
- inhibition at 10 µM (MAPK phosphorylation; [2]): 51 to 75%
- inhibition at 10 µM (AKT phosphorylation; [2]): 0%

- IC50 (MAPK phosphorylation; PANC-1): > 1 µM
SMILES: CO[C@H]1CC[C@@H](Nc2nc(-c3nccn3C)nc3sc(-c4ccn(C(C)C)n4)c(-c4ccccc4)c23)C1 [drawing 475]

- IC50 ([1]; MIA PaCa-2 (Table 5A)): > 1 µM
SMILES: CO[C@H]1C[C@@H](Nc2nc(-c3nccn3C)nc3sc(C(=O)NC(C)C)c(-c4ccccc4)c23)C1 [drawing 655]
- inhibition at 10 µM ([1]; MIA PaCa-2 (Table 5A)): 51 to 75%

SMILES: COc1nscc1-c1sc2nc(-c3nccn3C)nc(N3CCC(OC)C3)c2c1-c1ccccc1 (stereo not shown) [drawing 581]
- inhibition at 10 µM ([1]; 2-4 days, MIA PaCa-2): 76 to 100%

SMILES: COC(=O)c1nc(-c2nccn2C)nc(O)c1O [drawing 610]
- inhibition at 10 µM ([1]; 2-4 days, MIA PaCa-2): 0%

- IC50 (MAPK phosphorylation; PANC-1): > 1 µM
SMILES: COc1cccc(-c2sc3nc(-c4nccn4C)nc(N4CCC(OC)C4)c3c2-c2ccccc2)c1F (stereo not shown) [drawing 473]

SMILES: O=C(c1nc(-c2ccccn2)nc(O)c1O)N1CCc2ccccc2C1 [drawing 594]
- inhibition at 10 µM ([1]; 2-4 days, MIA PaCa-2): 1 to 25%

- IC50 ([1]; MIA PaCa-2 (Table 5A)): > 1 µM
SMILES: CO[C@H]1C[C@@H](Nc2nc(-c3nccn3C)nc3sc(C(=O)N4CCOCC4)c(-c4ccccc4)c23)C1 [drawing 657]
- inhibition at 10 µM ([1]; MIA PaCa-2 (Table 5A)): 26 to 50%

- IC50 ([1]; MIA PaCa-2 (Table 5A)): > 1 µM
SMILES: CCn1cc(Nc2nc(-c3ccccn3)nc(O)c2OC)cn1 [drawing 616]
- inhibition at 10 µM ([1]; MIA PaCa-2 (Table 5A)): 0%

SMILES: CC(C)CNC(=O)c1nc(-c2ccccn2)nc(O)c1O [drawing 601]
- inhibition at 10 µM ([1]; 2-4 days, MIA PaCa-2): 0%

SMILES: COc1c(O)nc(-c2ccccn2)nc1Oc1cnn(C)c1 [drawing 587]
- inhibition at 10 µM ([1]; 2-4 days, MIA PaCa-2): 0%

SMILES: Oc1nc(-c2cn3ccccc3n2)nc2c(-c3ccccn3)csc12 [drawing 531]
- inhibition at 10 µM ([1]; 2-4 days, MIA PaCa-2): 76 to 100%

SMILES: COc1c(O)nc(-c2ccccn2)nc1Oc1ccc2ncccc2c1 [drawing 588]
- inhibition at 10 µM ([1]; 2-4 days, MIA PaCa-2): 1 to 25%

SMILES: COc1ccc(-c2sc3nc(-c4nccn4C)nc(N4CCC(OC)C4)c3c2-c2ccccc2)cn1 (stereo not shown) [drawing 572]
- inhibition at 10 µM ([1]; 2-4 days, MIA PaCa-2): 76 to 100%

- IC50 ([1]; MIA PaCa-2 (Table 5A)): 0.75 to 1 µM
SMILES: COc1cccc(-c2sc3nc(-c4nccn4C)nc(NC4CCC(OC)C4)c3c2C)c1F (stereo not shown) [drawing 628]
- inhibition at 10 µM ([1]; MIA PaCa-2 (Table 5A)): 76 to 100%

SMILES: COc1cccc(Cn2ccnc2-c2nc(O)c3scc(-c4ccccn4)c3n2)c1 [drawing 535]
- inhibition at 10 µM ([1]; 2-4 days, MIA PaCa-2): 76 to 100%

- IC50 ([1]; MIA PaCa-2 (Table 5A)): > 1 µM
SMILES: Cn1ccc(-c2sc3nc(-c4nccn4C)nc(N[C@H]4C[C@@H](O)C4)c3c2-c2ccccc2)n1 [drawing 643]
- inhibition at 10 µM ([1]; MIA PaCa-2 (Table 5A)): 0%

SMILES: COC1CCN(c2nc(-c3nccn3C)nn3cc(-c4ccccc4)c(-c4ccccc4)c23)C1 (stereo not shown) [drawing 613]
- inhibition at 10 µM ([1]; 2-4 days, MIA PaCa-2): 76 to 100%

- IC50 ([1]; MIA PaCa-2 (Table 5A)): > 1 µM
SMILES: Cn1ccc(-c2sc3nc(-c4nccn4C)nc(O)c3c2-c2ccccc2)n1 [drawing 639]
- inhibition at 10 µM ([1]; MIA PaCa-2 (Table 5A)): 76 to 100%

- IC50 ([1]; MIA PaCa-2 (Table 5A)): 0.75 to 1 µM
SMILES: COc1cccc(-c2sc3nc(-c4nccn4C)nc(N[C@@H]4CC[C@H](OC)C4)c3c2C)c1F [drawing 629]
- inhibition at 10 µM ([1]; MIA PaCa-2 (Table 5A)): 76 to 100%

- IC50 ([1]; MIA PaCa-2 (Table 5A)): > 1 µM
SMILES: Cc1c(-c2ccn(C)n2)sc2nc(-c3nccn3C)nc(NCCCC(=O)N(C)C)c12 [drawing 652]
- inhibition at 10 µM ([1]; MIA PaCa-2 (Table 5A)): 0%
